According to patent US8188139B2, “Heterocyclic-substituted phenyl methanones” (Hoffman-La Roche Inc., priority 2005, dated 2012):

The compounds below were run against T1, mGlyT-1b (Mus musculus, UniProt P28571) (assay: Glycine uptake inhibition assay (mGlyT-1b)). Details: inhibition of [3H]-glycine uptake in Flp-in-CHO cells transfected with mGlyT-1b cDNA; 20 min preincubation at 22° C.; read-out: IC50 (μM) at GlyT-1.
T1 construct: host or cells: Flp-in-CHO
T1 sequence (P28571 1-651 isoform P28571-2): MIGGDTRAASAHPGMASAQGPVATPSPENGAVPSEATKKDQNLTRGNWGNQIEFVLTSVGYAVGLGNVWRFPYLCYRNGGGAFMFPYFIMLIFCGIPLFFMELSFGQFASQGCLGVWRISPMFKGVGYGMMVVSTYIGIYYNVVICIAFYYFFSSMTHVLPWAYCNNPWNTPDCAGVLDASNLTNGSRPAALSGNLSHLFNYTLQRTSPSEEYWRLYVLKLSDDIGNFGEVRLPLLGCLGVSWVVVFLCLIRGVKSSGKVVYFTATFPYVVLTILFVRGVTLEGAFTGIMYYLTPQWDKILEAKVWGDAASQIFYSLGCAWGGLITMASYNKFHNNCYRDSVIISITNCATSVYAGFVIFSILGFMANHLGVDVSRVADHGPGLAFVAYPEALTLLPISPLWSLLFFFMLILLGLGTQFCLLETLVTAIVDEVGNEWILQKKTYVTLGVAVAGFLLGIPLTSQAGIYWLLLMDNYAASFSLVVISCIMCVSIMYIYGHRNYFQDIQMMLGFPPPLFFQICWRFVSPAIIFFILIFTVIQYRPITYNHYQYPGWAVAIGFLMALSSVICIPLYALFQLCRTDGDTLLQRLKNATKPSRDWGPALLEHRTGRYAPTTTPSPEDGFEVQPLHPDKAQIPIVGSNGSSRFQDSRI
Assay type: cell-based
Method: DMEM complete medium: Nutrient mixture F-12 (Gibco Life-technologies), fetal bovine serum (FBS) 5%, (Gibco life technologies), Penicillin/Streptomycin1% (Gibco life technologies), Hygromycin 0.6 mg/ml (Gibco life technologies), Glutamine 1 mM Gibco life technologies)
Uptake buffer (UB): 150 mM NaCl, 10 mM Hepes-Tris, pH 7.4, 1 mM CaCl2, 2.5 mM KCl, 2.5 mM MgSO4, 10 mM (+) D-glucose.
Flp-in™-CHO (Invitrogen Cat n^o R758-07) cells stably transfected with mGlyT1b cDNA.
Glycine Uptake Inhibition Assay (mGlyT-1b)
On day 1 mammalian cells, (Flp-in™-CHO), transfected with mGlyT-1b cDNA, were plated at the density of 40,000 cells/well in complete F-12 medium, without hygromycin in 96-well culture plates. On day 2, the medium was aspirated, and the cells were washed twice with uptake buffer (UB). The cells were then incubated for 20 min at 22° C. with either (i) no potential competitor, (ii) 10 mM non-radioactive glycine, (iii) a concentration of a potential inhibitor. A range of concentrations of the potential inhibitor was used to generate data for calculating the concentration of inhibitor resulting in 50% of the effect (e.g. IC50, the concentration of the competitor inhibiting glycine uptake of 50%). A solution was then immediately added containing [^3H]-glycine 60 nM (11-16 Ci/mmol) and 25 μM non-radioactive glycine. The plates were incubated with gentle shaking, and the reaction was stopped by aspiration of the mixture and washing (three times) with ice-cold UB. The cells were lysed with scintillation liquid, shaken 3 hours, and the radioactivity in the cells was counted using a scintillation counter.

Row | Compound | IC50
1 | CCSc1ccc2c(c1)CN(C(=O)c1cc(S(C)(=O)=O)ccc1O[C@@H](C)C(F)(F)F)C2 [Example 32, (5-Ethylsulfanyl-1,3-dihydro-isoindol-2-yl)-[5-methanesulfonyl-2-((S)-2,2,2-trifluoro-1-methyl-ethoxy)-phenyl]-methanone] | 0.037 µM
2 | CC(C)COc1ccc(S(C)(=O)=O)cc1C(=O)N1Cc2ccc(C(F)(F)F)cc2C1 [Example 35, (2-Isobutoxy-5-methanesulfonyl-phenyl)-(5-trifluoromethyl-1,3-dihydro-isoindol-2-yl)-methanone] | 0.028 µM
3 | COc1cc2c(cc1C(F)(F)F)CN(C(=O)c1cc(S(C)(=O)=O)ccc1O[C@@H](C)C(F)(F)F)C2 [Example 100] | 0.045 µM
4 | C[C@H](Oc1ccc(S(C)(=O)=O)cc1C(=O)N1Cc2cc(F)c(C(F)(F)F)cc2C1)C(F)(F)F [Example 224, (5-Fluoro-6-trifluoromethyl-1,3-dihydro-isoindol-2-yl)-[5-methanesulfonyl-2-((S)-2,2,2-trifluoro-1-methyl-ethoxy)-phenyl]-methanone] | 0.019 µM
5 | CS(=O)(=O)c1ccc(OCC(F)(F)C(F)(F)F)c(C(=O)N2Cc3cnc(C(F)(F)F)cc3C2)c1 [Example 155, [5-Methanesulfonyl-2-(2,2,3,3,3-pentafluoro-propoxy)-phenyl]-(6-trifluoromethyl-1,3-dihydro-pyrrolo[3,4-c]pyridin-2-yl)-methanone] | 0.044 µM
6 | CS(=O)(=O)c1ccc(-c2ccc(F)c(F)c2)c(C(=O)N2Cc3cc(C(F)(F)F)cnc3C2)c1 [Example 148, (3′,4′-Difluoro-4-methanesulfonyl-biphenyl-2-yl)-(3-trifluoromethyl-5,7-dihydro-pyrrolo[3,4-b]pyridin-6-yl)-methanone] | 0.032 µM
7 | C[C@H](Oc1ccc(S(C)(=O)=O)cc1C(=O)N1Cc2ccc(N3[C@@H]4CC[C@H]3COC4)cc2C1)C(F)(F)F [Example 295, [5-Methanesulfonyl-2-((S)-2,2,2-trifluoro-1-methyl-ethoxy)-phenyl]-[(1R,5S)-5-(3-oxa-8-aza-bicyclo[3.2.1]oct-8-yl)-1,3-dihydro-isoindol-2-yl]-methanone] | 0.04 µM
8 | CS(=O)(=O)c1ccc(-c2ccc(F)cc2)c(C(=O)N2Cc3cc(C(F)(F)F)cnc3C2)c1 [Example 140, (4′-Fluoro-4-methanesulfonyl-biphenyl-2-yl)-(3-trifluoromethyl-5,7-dihydro-pyrrolo[3,4-b]pyridin-6-yl)-methanone] | 0.036 µM
9 | Cc1cc(-c2ccc3c(c2)CN(C(=O)c2cc(S(C)(=O)=O)ccc2O[C@@H](C)C(F)(F)F)C3)cs1 [Example 170, [5-Methanesulfonyl-2-((S)-2,2,2-trifluoro-1-methyl-ethoxy)-phenyl]-[5-(5-methyl-thiophen-3-yl)-1,3-dihydro-isoindol-2-yl]-methanone] | 0.048 µM
10 | C[C@H](Oc1ccc(S(C)(=O)=O)cc1C(=O)N1Cc2ccc(OC(F)(F)F)cc2C1)C(F)(F)F [Example 103, [5-Methanesulfonyl-2-((S)-2,2,2-trifluoro-1-methyl-ethoxy)-phenyl]-(5-trifluoro-methoxy-1,3-dihydro-isoindol-2-yl)-methanone] | 0.046 µM
11 | Cc1csc(-c2ccc3c(c2)CN(C(=O)c2cc(S(C)(=O)=O)ccc2O[C@@H](C)C(F)(F)F)C3)n1 [Example 168, [5-Methanesulfonyl-2-((S)-2,2,2-trifluoro-1-methyl-ethoxy)-phenyl]-[5-(4-methyl-thiazol-2-yl)-1,3-dihydro-isoindol-2-yl]-methanone] | 0.033 µM
12 | COC(=O)c1cccc2c1CCN2C(=O)c1cc(S(C)(=O)=O)ccc1OC(C)C [Example 206, 1-(2-Isopropoxy-5-methanesulfonyl-benzoyl)-2,3-dihydro-1#H!-indole-4-carboxylic acid methyl ester] | 0.041 µM
13 | CS(=O)(=O)c1ccc(OCC2CCC2)c(C(=O)N2Cc3cc(C(F)(F)F)cnc3C2)c1 [Example 124, (2-Cyclobutyl-methoxy-5-methane-sulfonyl-phenyl)-(3-trifluoromethyl-5,7-dihydro-pyrrolo[3,4-b]pyridin-6-yl)-methanone] | 0.03 µM

Other lines, results leading:

Row | IC50 | Compound
14 | 0.012 µM | C[C@H](Oc1ccc(S(C)(=O)=O)cc1C(=O)N1Cc2cc(-c3ccc(F)cc3)cnc2C1)C(F)(F)F [Example 322, [3-(4-Fluoro-phenyl)-5,7-dihydro-pyrrolo[3,4-b]pyridin-6-yl]-[5-methanesulfonyl-2-((S)-2,2,2-trifluoro-1-methyl-ethoxy)-phenyl]-methanone]
15 | 0.022 µM | C[C@H](Oc1ccc(S(C)(=O)=O)cc1C(=O)N1Cc2ccc(CC(F)(F)F)cc2C1)C(F)(F)F [Example 290, [5-Methanesulfonyl-2-((S)-2,2,2-trifluoro-1-methyl-ethoxy)-phenyl]-[5-(2,2,2-tri-fluoro-ethyl)-1,3-dihydro-isoindol-2-yl]-methanone]
16 | 0.013 µM | C[C@H](Oc1ccc(S(C)(=O)=O)cc1C(=O)N1Cc2ccc(-c3ccccc3)cc2C1)C(F)(F)F [Example 323, [5-Methanesulfonyl-2-((S)-2,2,2-trifluoro-1-methyl-ethoxy)-phenyl]-(5-phenyl-1,3-dihydro-isoindol-2-yl)-methanone]
17 | 0.047 µM | CC(C)(C)COc1ccc(S(C)(=O)=O)cc1C(=O)N1Cc2ccc(C3CCOCC3)cc2C1 [Example 273, [2-(2,2-Dimethyl-propoxy)-5-methane-sulfonyl-phenyl]-[5-(tetrahydro-pyran-4-yl)-1,3-dihydro-isoindol-2-yl]-methanone]
18 | 0.047 µM | C[C@H](Oc1ccc(S(C)(=O)=O)cc1C(=O)N1Cc2ccc(OCCC(F)(F)F)cc2C1)C(F)(F)F [Example 370, [5-Methanesulfonyl-2-((S)-2,2,2-trifluoro-1-methyl-ethoxy)-phenyl]-[5-(3,3,3-trifluoro-propoxy)-1,3-dihydro-isoindol-2-yl]-methanone]
19 | 0.007 µM | CS(=O)(=O)c1ccc(OCC(F)(F)C(F)(F)F)c(C(=O)N2Cc3cc(F)c(OC4CCOCC4)cc3C2)c1 [Example 379, [5-Fluoro-6-(tetrahydro-pyran-4-yloxy)-1,3-dihydro-isoindol-2-yl]-[5-methanesulfonyl-2-(2,2,3,3,3-pentafluoro-propoxy)-phenyl]-methanone]
20 | 0.007 µM | C[C@H](Oc1ccc(S(C)(=O)=O)cc1C(=O)N1Cc2cc(F)c(OC3CCOCC3)cc2C1)C(F)(F)F [Example 377, [5-Fluoro-6-(tetrahydro-pyran-4-yloxy)-1,3-dihydro-isoindol-2-yl]-[5-methanesulfonyl-2-((S)-2,2,2-trifluoro-1-methyl-ethoxy)-phenyl]-methanone]
21 | 0.01 µM | C[C@H](Oc1ccc(S(C)(=O)=O)cc1C(=O)N1Cc2cc(Cl)c(C3CCOC3)cc2C1)C(F)(F)F (mixture of isomers) [Example 359, [5-Chloro-6-(tetrahydro-furan-3-yl)-1,3-dihydro-isoindol-2-yl]-[5-methanesulfonyl-2-((S)-2,2,2-trifluoro-1-methyl-ethoxy)-phenyl]-methanone]
22 | 0.047 µM | C[C@H](Oc1ccc(S(C)(=O)=O)cc1C(=O)N1Cc2ccc(-c3ccc(F)cc3)cc2C1)C(F)(F)F [Example 333, [5-(4-Fluoro-phenyl)-1,3-dihydro-isoindol-2-yl]-[5-methanesulfonyl-2-(2,2,2-trifluoro-1-methyl-ethoxy)-phenyl]-methanone]
23 | 0.004 µM | CS(=O)(=O)c1ccc(OCC(F)(F)C(F)(F)F)c(C(=O)N2Cc3cc(F)c(N4CCOCC4)cc3C2)c1 [Example 372, (5-Fluoro-6-morpholin-4-yl-1,3-dihydro-isoindol-2-yl)-[5-methanesulfonyl-2-(2,2,2,3,3-pentafluoropropoxy)-phenyl]-methanone]
24 | 0.015 µM | C[C@H](Oc1ccc(S(C)(=O)=O)cc1C(=O)N1Cc2cc(Cl)c(OC3CCOCC3)cc2C1)C(F)(F)F [Example 375, [5-Chloro-6-(tetrahydro-pyran-4-yloxy)-1,3-dihydro-isoindol-2-yl]-[5-methanesulfonyl-2-((S)-2,2,2-trifluoro-1-methyl-ethoxy)-phenyl]-methanone]
